The text below walks through data of PMC5028351, “Natural flavonoids silymarin and quercetin improve the brain distribution of co-administered P-gp substrate drugs” (SpringerPlus, 2016).

The term AUC(0-inf) denotes the area under the concentration-time curve extrapolated to infinity. What is called AUC(0-t) is the area under the concentration-time curve up to a stated or last time point. A word on the Cmax: it is the peak of the concentration-time curve. Usually Tmax stands for the time at which the peak concentration occurs. Usually Papp A→B stands for the apparent permeability from the apical to the basolateral side of a cell layer. A higher Papp A→B goes with ready permeation. As a reminder, the Papp B→A is the apparent permeability from the basolateral to the apical side of a cell layer.

In series [1] the test system is P-gp. Also noted: method as in Van Asperen et al. 1996. Conditions: ref Van Asperen et al. 1996; cited from earlier work.
Series [2] has as its system P-gp. More on the design: method as in O’Brien et al. 2013. Conditions: P-gp inhibition using cyclosporin and verapamil; ref O’Brien et al. 2013; cited from earlier work.
The subject of series [3] is P-gp. In words: In vivo P-gp inhibition study: plasma and brain pharmacokinetics of i.v. quinidine in mice with and without inhibitor pre-treatment. Particulars: for Effect of pre-treatment on plasma profile of quinidine: quinidine 5 mg/kg i.v., inhibitor i.v. 0.5 h pre-treatment; for AUC(0-inf) / AUC(0-t) / Cmax / Tmax: male, C57, mouse, iv, 5 mg/kg. How it is done: Male C57 mice weighing 30–35 g and of 6–8 weeks old were taken and the animal experiments were conducted in the animal research facility of Syngene International limited, Bengaluru, India. […] Animal study protocols were approved by the Syngene International organisational animal ethics committee, Bengaluru, India.
Dose volumes (5 mL/kg) of drugs were administered by i.v. route via tail vein injection. […]
Mice were divided into three groups (n = 3–4). […] Blood and brain samples were collected at 0.5, 1, 3, 5 and 7 h post dose of probe substrate. Blood was collected from mice under mild anaesthesia via tail vein and collected blood was centrifuged at 5000 rpm to separate plasma.
After sacrificing the mice at different time points, brain was collected homogenised at 5× concentration with phosphate buffered saline using Bullet blender. Fifty µL of brain homogenate or plasma and 200 µL of internal standard (IS) in vehicle (70 % acetonitrile and 30 % water) were mixed in a 96-well hydrophilic solvinert plate. The acetonitrile mixtures were vortexed and centrifuged at 10,000 rpm for 10 min. Supernatant was collected in a 96 well plate and analysed by liquid chromatography with mass spectroscopy (LC-MS, QTRAP ABSCIEX API 4000).
Analysis was carried out using 4000 QTRAP LC/MS/MS system with triple Quadruple mass spectrometer (AB SCIEX) equipped with an electron spray ionisation (ESI). The mass spectrometer was operated in the ESI positive ion mode and detection of ions were performed in the multiple reaction monitoring (MRM) mode.

In series [4] the target is T1, P-gp (Homo sapiens, UniProt P08183). Conditions: digoxin 10 µM alone.
Procedure: (§1) Caco-2 cells were seeded in transwell poly carbonate inserts (6 well, 0.4 µm pore size, Corning co-star Co.) at 70,000 cells per insert on the day of seeding. Cells were cultured in DMEM supplemented with 10 % fetal bovine serum and 1 % non essential amino acids (Gibco). All the cells were incubated at 37 °C in a humidified atmosphere with 5 % CO2 and 95 % air. For uptake studies, Caco-2 cells were seeded on to 0.7 cm^2 dishes at a density of approximately 70,000 cells per dish and used for experiment.
The next series relates to Caco-2. Particulars: ref Collett et al. 2004; cited from earlier work.
Series [5] deals with T1, P-gp. Nature of the series: in vitro. Conditions: Caco-2.
Procedure: as §1

T1 sequence (P08183 whole entry): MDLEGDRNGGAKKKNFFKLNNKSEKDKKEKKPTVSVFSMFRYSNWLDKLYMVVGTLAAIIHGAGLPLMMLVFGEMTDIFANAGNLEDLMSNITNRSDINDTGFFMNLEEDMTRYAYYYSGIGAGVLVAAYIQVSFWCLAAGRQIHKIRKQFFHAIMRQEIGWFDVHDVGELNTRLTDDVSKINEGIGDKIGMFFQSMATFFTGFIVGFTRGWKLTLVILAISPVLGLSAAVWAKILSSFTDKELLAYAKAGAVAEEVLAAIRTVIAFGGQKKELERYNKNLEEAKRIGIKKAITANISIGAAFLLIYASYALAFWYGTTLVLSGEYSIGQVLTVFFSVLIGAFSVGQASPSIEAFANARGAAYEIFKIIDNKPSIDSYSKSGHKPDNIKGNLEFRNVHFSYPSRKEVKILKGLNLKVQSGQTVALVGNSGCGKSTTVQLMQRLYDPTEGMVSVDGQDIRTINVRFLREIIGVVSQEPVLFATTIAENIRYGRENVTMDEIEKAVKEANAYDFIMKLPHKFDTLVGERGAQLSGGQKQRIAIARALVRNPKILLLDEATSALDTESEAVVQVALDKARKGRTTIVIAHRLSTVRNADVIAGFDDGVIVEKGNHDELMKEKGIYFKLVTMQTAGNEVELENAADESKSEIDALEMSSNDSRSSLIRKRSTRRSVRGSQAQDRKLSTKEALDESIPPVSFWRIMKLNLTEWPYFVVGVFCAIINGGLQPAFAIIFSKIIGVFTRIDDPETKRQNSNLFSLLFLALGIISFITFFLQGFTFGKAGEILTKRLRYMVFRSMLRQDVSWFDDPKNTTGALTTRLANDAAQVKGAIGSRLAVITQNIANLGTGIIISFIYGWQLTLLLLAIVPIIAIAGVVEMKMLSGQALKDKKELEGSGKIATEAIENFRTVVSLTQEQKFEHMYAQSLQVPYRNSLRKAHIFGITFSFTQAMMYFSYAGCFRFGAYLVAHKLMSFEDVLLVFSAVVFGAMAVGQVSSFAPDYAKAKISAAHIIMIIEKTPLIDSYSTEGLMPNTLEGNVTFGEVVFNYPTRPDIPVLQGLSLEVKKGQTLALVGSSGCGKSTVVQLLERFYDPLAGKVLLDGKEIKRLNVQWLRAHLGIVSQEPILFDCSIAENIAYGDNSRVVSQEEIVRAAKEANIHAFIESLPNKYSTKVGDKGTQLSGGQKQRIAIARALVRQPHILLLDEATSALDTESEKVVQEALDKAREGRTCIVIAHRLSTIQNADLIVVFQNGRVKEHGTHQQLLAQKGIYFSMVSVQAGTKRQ

Consider `CC[C@]1(O)C[C@@H]2CN(CCc3c([nH]c4ccccc34)[C@@](C(=O)OC)(c3cc4c(cc3OC)N(C)[C@H]3[C@@](O)(C(=O)OC)[C@H](OC(C)=O)[C@]5(CC)C=CCN6CC[C@]43[C@@H]65)C2)C1` [vinblastine], for which, in the series with P-gp [1], the “Penetration into the brain, P-gp knockout mice compared with wild type control” value was 7–46 folds.

On to `CN(C)CCC[C@@]1(c2ccc(F)cc2)OCc2cc(C#N)ccc21` [Escitalopram], for which, in the series with P-gp [2], the “Increase in brain concentration” value is given as “threefold”.

Turning to `COc1cc2c(cc1OC)CN(CCc1ccc(NC(=O)c3cccc4c(=O)c5cccc(OC)c5[nH]c34)cc1)CC2` [Elacridar], the “Effect of pre-treatment on plasma profile of quinidine” value in the series with P-gp [3] (mice) was “no significant difference”.

For the compound `C=C[C@H]1C[N@@]2CC[C@H]1C[C@@H]2[C@@H](O)c1ccnc2ccc(OC)cc12` [Quinidine], in the series on P-gp [3] (brain), the AUC(0-inf) stood at 0.251 µg·h/mL, the AUC(0-t) amounted to 0.211 µg·h/mL, the Cmax came out at 0.115 µg/mL and the Tmax came to 48 min. Moreover, in the series on P-gp [3] (plasma), the AUC(0-inf) is 0.513 µg·h/mL, the AUC(0-t) came to 0.496 µg·h/mL, the Cmax was determined as 0.209 µg/mL and the Tmax worked out at 39.6 min.

`O=c1c(O)c(-c2ccc(O)c(O)c2)oc2cc(O)cc(O)c12` [Quercetin]: the “Increase in (AUC) 0–7h B/P of quinidine” value in the series on P-gp [3] (mice, inhibitor pre-treatment) is given as “twofold”. The “Effect of pre-treatment on plasma profile of quinidine” value in the series on P-gp [3] (mice) is “no significant difference”.

For the compound `C[C@H]1O[C@@H](O[C@H]2[C@@H](O)C[C@H](O[C@H]3[C@@H](O)C[C@H](O[C@H]4CC[C@@]5(C)[C@H](CC[C@@H]6[C@@H]5C[C@@H](O)[C@]5(C)[C@@H](C7=CC(=O)OC7)CC[C@]65O)C4)O[C@@H]3C)O[C@@H]2C)C[C@H](O)[C@@H]1O` [Digoxin], at P-gp [4] (Caco-2 (Table 3)), the “AP-BL transport of digoxin” value is 5.18 10^−8 cm/s and the “BL-AP transport of digoxin” value came out at 1.80 ×10⁻⁶ cm/s. At P-gp [4] (Caco-2 monolayers), the “AP-BL transport (PappA–B) of digoxin” value turned out to be 0.518 nm/s and the “BL-AP transport (PappB–A) of digoxin” value was found to be 18 nm/s. Also, in the series with Caco-2, the “Caco-2 Papp” value was 11 nm/s. On P-gp [5], this compound had a Papp A→B at 10 µM of 0.518 nm/s and a Papp B→A at 10 µM of 18 nm/s.
